Structures are written as SMILES. Some results are limits rather than exact numbers.

The target in one experiment is His-tagged N-terminal ATP binding domain (amino acid residues 9-236) of HSP90α (Homo sapiens, UniProt P07900). Put plainly: HSP90 inhibitor binding potency: TRF competition binding assay. The conditions noted are these: Table 1; competition with biotinylated radicicol. The essentials:
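His-tagged HSP90α N-domain (residues 9-236) incubated 2 h at room temperature with biotinylated radicicol and increasing compound in 50 mM HEPES, 6 mM MgCl2, 20 mM KCl, 0.1% BSA. Bound tracer captured on streptavidin plates, detected with europium anti-His antibody by time-resolved fluorescence; IC50 derived.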
For orientation: IC50 means the midpoint of a concentration-inhibition curve. `Cc1nc(N)nc2c1C(=O)N[C@@H](c1ccccc1-c1cccnc1F)C2` [Compound 1, (R)-2-Amino-7-[2-(2-fluoro-pyridin-3-yl)-phenyl]-4-methyl-7,8-dihydro-6H-pyrido[4,3-d]pyrimidin-5-one] gave an IC50 of less than 10 µM.

The compound `Cc1nc(N)nc2c1C(=O)NC(c1ccc(F)cc1-c1cnccc1Cl)C2` (stereo not shown) [Compound 20, 2-Amino-7-[2-(4-chloro-pyridin-3-yl)-4-fluoro-phenyl]-4-methyl-7,8-dihydro-6H-pyrido[4,3-d]pyrimidin-5-one] showed an IC50 of less than 10 µM.

Turning to `Cc1nc(N)nc2c1C(=O)N(CC(C)(C)N1CCOCC1)C(c1ccc(F)cc1Br)C2` (stereo not shown) [Compound 33, 2-Amino-7-(2-bromo-4-fluoro-phenyl)-4-methyl-6-(2-methyl-2-morpholin-4-yl-propyl)-7,8-dihydro-6H-pyrido[4,3-d]pyrimidin-5-one], the IC50 is greater than 10 µM.

`Cc1nc(N)nc2c1C(=O)N(CC(C)(C)N1CCOCC1)C(c1ccc(F)cc1-c1cncnc1)C2` (stereo not shown) [Compound 37, 2-Amino-7-(4-fluoro-2-pyrimidin-5-yl-phenyl)-4-methyl-6-(2-methyl-2-morpholin-4-yl-propyl)-7,8-dihydro-6H-pyrido[4,3-d]pyrimidin-5-one] yielded an IC50 greater than 10 µM.

In turn, `COc1ncccc1-c1cc(F)ccc1C1Cc2nc(N)nc(C)c2C(=O)N1` (stereo not shown) [Compound 25, 2-Amino-7-[4-fluoro-2-(2-methoxy-pyridin-3-yl)-phenyl]-4-methyl-7,8-dihydro-6H-pyrido[4,3-d]pyrimidin-5-one] had an IC50 greater than 10 µM.

Staying with this experiment, now noted: Table 2; competition with biotinylated radicicol.
In the case of `COc1nc(-c2cc(F)ccc2[C@H]2Cc3nc(N)ncc3C(=O)N2)ccc1N` [Compound 46, (R)-2-Amino-7-[2-(5-amino-6-methoxy-pyridin-2-y1)-4-fluoro-phenyl]-7,8-dihydro-6H-pyrido[4,3-d]pyrimidin-5-one], the IC50 is less than 10 µM.

`CCOc1nc(-c2cc(F)ccc2[C@H]2Cc3nc(N)ncc3C(=O)N2)cnc1N` [Compound 83, (R)-2-Amino-7-[2-(5-amino-6-ethoxy-pyrazin-2-yl)-4-fluoro-phenyl]-7,8-dihydro-6H-pyrido[4,3-d]pyrimidin-5-one]: the IC50 was less than 10 µM.

The compound `COc1cc(F)ccc1-c1cc(F)ccc1[C@H]1Cc2nc(N)ncc2C(=O)N1` [Compound 56, (R)-2-Amino-7-(5,4′-difluoro-2′-methoxy-biphenyl-2-yl)-7,8-dihydro-6H-pyrido[4,3-d]pyrimidin-5-one] had an IC50 of less than 10 µM.

In turn, `COc1nc(-c2cc(F)ccc2[C@H]2Cc3nc(N)nc(C)c3C(=O)N2)ccc1N` [Compound 44, (R)-2-Amino-7-[2-(5-amino-6-methoxy-pyridin-2-yl)-4-fluoro-phenyl]-4-methyl-7,8-dihydro-6H-pyrido[4,3-d]pyrimidin-5-one] registered an IC50 of less than 10 µM.

The compound `COc1cncc(-c2cc(F)ccc2[C@H]2Cc3nc(N)ncc3C(=O)N2)n1` [Compound 53, (R)-2-Amino-7-[4-fluoro-2-(6-methoxy-pyrazin-2-yl)-phenyl]-7,8-dihydro-6H-pyrido[4,3-d]pyrimidin-5-one] showed an IC50 of less than 10 µM.

Compound `COc1nc(-c2ccccc2[C@H]2Cc3nc(N)nc(C)c3C(=O)N2)ccc1N` [Compound 45, (R)-2-Amino-7-[2-(5-amino-6-methoxy-pyridin-2-yl)-phenyl]-4-methyl-7,8-dihydro-6H-pyrido[4,3-d]pyrimidin-5-one] displayed an IC50 of less than 10 µM.

The same experiment, now with this note: Table 3; competition with biotinylated radicicol.
`COc1nc(-c2cc(F)ccc2[C@H]2Cc3nc(N)ncc3C(=O)N2)cnc1N` [Compound 97, (R)-2-Amino-7-[2-(5-amino-6-methoxy-pyrazin-2-yl)-4-fluoro-ohenyl]-7,8-dihydro-6H-pyrido[4,3-d]pyrimidin-5-one] returned an IC50 of less than 10 µM.

Compound `COc1cncc(-c2cc(F)ccc2[C@H]2Cc3nc(N)nc(C)c3C(=O)N2CC(C)(C)N2CCOCC2)n1` [Compound 133, (R)-2-Amino-7-[4-fluoro-2-(6-methoxy-pyrazin-2-yl)-phenyl]-4-methyl-6-(2-methyl-2-morpholin-4-yl-propyl)-7,8-dihydro-6H-pyrido[4,3-d]pyrimidin-5-one] had an IC50 of less than 10 µM.

Compound `C=CCN1C(=O)c2c(C)nc(N)nc2C[C@@H]1c1ccc(F)cc1-c1cnc(N)c(OC)n1` [Compound 105, (R)-6-Allyl-2-amino-7-[2-(5-amino-6-methoxy-pyrazin-2-yl)-4-fluoro-phenyl]-4-methyl-7,8-dihydro-6H-pyndo[4,3-d]pyrimidin-5-one] gave an IC50 of less than 10 µM.

On to `COc1ncccc1-c1cc(F)ccc1[C@H]1Cc2nc(N)nc(C)c2C(=O)N1Cc1ccccc1` [Compound 135, (R)-2-Amino-6-benzyl-7-[4-fluoro-2-(2-methoxy-pyridin-3-yl)-phenyl]-4-methyl-7,8-dihydro-6H-pyrido[4,3-d]pyrimidin-5-one], for which the IC50 is less than 10 µM.

Compound `COc1nc(-c2cc(F)ccc2C2Cc3nc(N)nc(C)c3C(=O)N2)cnc1N` (stereo not shown) [Compound 99, 2-Amino-7-[2-(5-amino-6-methoxy-pyrazin-2-yl)-4-fluoro-phenyl]-4-methyl-7,8-dihydro-6H-pyrido[4,3-d]pyrimidin-5-one] had an IC50 of less than 10 µM.

`Cc1nc(N)nc2c1C(=O)N[C@@H](c1ccc(F)cc1)C2` [Compound 102, (R)-2-Amino-7-(4-fluoro-phenyl)-4-methyl-7,8-dihydro-6H-pyrido[4,3-d]pyrimidin-5-one] displayed an IC50 of less than 10 µM.

Compound `CCN1C(=O)c2c(C)nc(N)nc2C[C@@H]1c1ccc(F)cc1-c1cccnc1OC` [Compound 107, (R)-2-Amino-6-ethyl-7-[4-fluoro-2-(2-methoxy-pyridin-3-yl)-phenyl]-4-methyl-7,8-dihydro-6H-pyrido[4,3-d]pyrimidin-5-one] came in with an IC50 of less than 10 µM.

For the compound `COc1cncc(-c2cc(F)ccc2[C@H]2Cc3nc(N)nc(C)c3C(=O)N2CCC(C)C)n1` [Compound 146, (R)-2-Amino-7-[4-fluoro-2-(6-methoxy-pyrazin-2-yl)-phenyl]-4-methyl-6-(3-methyl-butyl)-7,8-dihydro-6H-pyrido[4,3-d]pyrimidin-5-one], the IC50 was less than 10 µM.

In the case of `COc1cccc(-c2cc(F)ccc2[C@H]2Cc3nc(N)nc(C)c3C(=O)N2Cc2ccccc2)c1F` [Compound 144, (R)-2-Amino-6-benzyl-7-(5,2′-difluoro-3′-methoxy-biphenyl-2-yl)-4-methyl-7,8-dihydro-6H-pyrido[4,3-d]pyriniidin-5-one], the IC50 was greater than 10 µM.

For the compound `COc1ccc(CN2C(=O)c3c(C)nc(N)nc3C[C@@H]2c2ccc(F)cc2-c2cccc(OC)n2)c(OC)c1` [Compound 119, (R)-2-Amino-6-(2,4-dimethoxy-benzyl)-7-[4-fluoro-2-(6-methoxy-pyridin-2-yl)-phenyl]-4-methyl-7,8-dihydro-6H-pyrido[4,3-d]pyrimidin-5-one], the IC50 was less than 10 µM.

For `COc1nc(-c2ccccc2[C@H]2Cc3nc(N)nc(C)c3C(=O)N2)cnc1N` [Compound 104, (R)-2-Amino-7-[2-(5-amino-6-methoxy-pyrazin-2-yl)-phenyl]-4-methyl-7,8-dihydro-6H-pyrido[4,3-d]pyrimidin-5-one], the IC50 is less than 10 µM.

For the compound `COc1cncc(-c2cc(F)ccc2[C@H]2Cc3nc(N)nc(C)c3C(=O)N2CC(C)C)n1` [Compound 154, (R)-2-Amino-7-[4-fluoro-2-(6-methoxy-pyrazin-2-yl)-phenyl]-6-isobutyl-4-methyl-7,8-dihydro-6H-pyrido[4,3-d]pyrimidin-5-one], the IC50 was less than 10 µM.

Staying with this experiment, now noted: Table 4; competition with biotinylated radicicol.
The compound `COc1ccc(-c2cc(F)ccc2[C@H]2Cc3nc(N)ncc3C(=O)N2)cc1OC` [Compound 179, (R)-2-Amino-7-(5-fluoro-3′,4′-dimethoxy-biphenyl-2-yl)-7,8-dihydro-6H-pyrido[4,3-d]pyrimidin-5-one] gave an IC50 of no less than 10 µM.

Consider `Cc1ccc(-c2cc(F)ccc2[C@H]2Cc3nc(N)ncc3C(=O)N2)cc1` [Compound 182, (R)-2-Amino-7-(5-fluoro-4′-methyl-biphenyl-2-yl)-7,8-dihydro-6H-pyrido[4,3-d]pyrimidin-5-one], for which the concentration for half-maximal inhibition (IC50) is less than 10 µM.

With `COc1ccc([C@H]2Cc3nc(N)nc(C)c3C(=O)N2)c(Br)c1` [Compound 236, (R)-2-Amino-7-(2-bromo-4-methoxy-phenyl)-4-methyl-7,8-dihydro-6H-pyrido[4,3-d]pyrimidin-5-one], the IC50 is no less than 10 µM.

`CCOc1nc(-c2cc(F)ccc2[C@H]2Cc3nc(N)nc(C)c3C(=O)N2)ncc1F` [Compound 174, (R)-2-Amino-7-[2-(4-ethoxy-5-fluoro-pyrunidin-2-yl)-4-fluoro-phenyl]-4-methyl-7,8-dihydro-6H-pyrido[4,3-d]pyrimidin-5-one]: the IC50 is less than 10 µM.

Turning to `COc1cncc(-c2ccccc2[C@H]2Cc3nc(N)ncc3C(=O)N2)n1` [Compound 203, (R)-2-Amino-7-[2-(6-methoxy-pyrazin-2-yl)-phenyl]-7,8-dihydro-6H-pyrido[4,3-d]pyrimidin-5-one], the IC50 is less than 10 µM.

Take `COc1nc(-c2cc(F)ccc2[C@H]2Cc3nc(N)nc(C)c3C(=O)N2)ncc1Cl` [Compound 202, (R)-2-Amino-7-[2-(5-chloro-4-methoxy-pyrimidin-2-yl)-4-fluoro-phenyl]-4-methyl-7,8-dihydro-6H-pyrido[4,3-d]pyrimidin-5-one]: the IC50 was less than 10 µM.

`CCOc1nc(-c2cc(F)ccc2[C@H]2Cc3nc(N)nc(CC)c3C(=O)N2)cnc1N` [Compound 226, (R)-2-Amino-7-[2-(5-amino-6-ethoxy-pyrazin-2-yl)-4-fluoro-phenyl]-4-ethyl-7,8-dihydro-6H-pyrido[4,3-d]pyrimidin-5-one] returned an IC50 of less than 10 µM.

As to `Cc1nc(N)nc2c1C(=O)N[C@@H](c1ccc(F)cc1C#N)C2` [Compound 219, 2-((R)-2-Amino-4-methyl-5-oxo-5,6,7,8-tetrahydro-pyrido[4,3-d]pyrimidin-7-yl)-5-fluoro-benzonitrile], the 50% inhibitory concentration (IC50) is no less than 10 µM.

Source of the values: patent US20070123546A1, “2-amino-7,8-dihydro-6H-pyrido[4,3-d]pyrimidin-5-ones” (Chiron Corporation, priority 2005, published 2007).
